Laboratory results from ChEMBL document CHEMBL2417540, “Medicinal chemistry of nicotinamide phosphoribosyltransferase (NAMPT) inhibitors” (J Med Chem, 2013).

Legend:
[1] = Cytotoxicity against human NYH cells after 3 weeks by clonogenic survival assay; assay type: functional; settings: 504 h, read-out: LD50 (the source's name)
[2] = Solubility of the compound in water; assay type: physicochemical
[3] = system: HCT-116; experiment: Cytotoxicity against human HCT116 cells; assay type: functional, cell-based
[4] = molecular target: T1, Nicotinamide phosphoribosyltransferase (Homo sapiens, UniProt P43490); experiment: Inhibition of NAMPT in human U87 cells; assay type: cell-based, U-87MG ATCC
[5] = Cytotoxicity against human U87 cells by MTT assay; assay type: functional, cell-based, U-87MG ATCC; settings: U-87 MG
[6] = system: A2780; experiment: Cytotoxicity against human A2780 cells after 72 hrs by SRB assay; assay type: functional, cell-based; settings: A2780, 72 h
[7] = molecular target: T1, Nicotinamide phosphoribosyltransferase; experiment: Inhibition of recombinant his-tagged NAMPT (unknown origin) expressed in Escherichia coli after 30 mins
[8] = system: A2780; experiment: Cytotoxicity against human A2780 cells; assay type: functional, cell-based
[9] = system: A2780; experiment: Cytotoxicity against human A2780 cells after 72 hrs by WST-1 assay; assay type: functional, cell-based; settings: A2780, 72 h
[10] = Cytotoxicity against human SH-SY5Y cells […] after 48 hrs by MTT assay; assay type: functional, cell-based
[11] = molecular target: T1, Nicotinamide phosphoribosyltransferase; experiment: Binding affinity to NAMPT (unknown origin)
[12] = molecular target: T1, Nicotinamide phosphoribosyltransferase; experiment: Inhibition of NAMPT (unknown origin)
[13] = Half life in human; assay type: ADME, organism-based; settings: in vivo
[14] = system: K562; experiment: Cytotoxicity against human K562 cells after 96 hrs by MTT assay; assay type: functional, cell-based; settings: K562, 96 h
[15] = system: WIL2; experiment: Cytotoxicity against human W1L2 cells; assay type: functional, cell-based

T1 sequence (P43490 whole entry): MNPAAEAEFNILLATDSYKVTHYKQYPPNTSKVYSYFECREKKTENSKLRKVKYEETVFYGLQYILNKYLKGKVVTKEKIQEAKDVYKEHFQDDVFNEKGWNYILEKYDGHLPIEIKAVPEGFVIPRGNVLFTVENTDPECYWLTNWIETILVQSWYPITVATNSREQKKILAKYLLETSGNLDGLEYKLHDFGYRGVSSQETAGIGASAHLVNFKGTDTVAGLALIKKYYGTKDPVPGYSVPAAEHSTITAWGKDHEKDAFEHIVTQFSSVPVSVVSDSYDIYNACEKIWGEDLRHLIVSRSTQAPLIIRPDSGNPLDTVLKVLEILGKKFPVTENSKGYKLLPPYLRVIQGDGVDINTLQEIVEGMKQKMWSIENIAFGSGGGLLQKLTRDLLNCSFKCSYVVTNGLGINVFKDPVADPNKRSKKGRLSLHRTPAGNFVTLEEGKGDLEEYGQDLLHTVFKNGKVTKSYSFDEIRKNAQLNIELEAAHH

With `N#C/N=C(\NCCCCCCC(=O)N(Cc1ccccc1)OC1CCCCC1)Nc1ccncc1` the CC50 [1] was 0.02 nM.

For `COCCOCCOCCOCCOC(=O)OC[n+]1ccc(N/C(=N/C#N)NCCCCCCOc2ccc(Cl)cc2)cc1.[Cl-]` [TEGLARINAD CHLORIDE], the solubility [2] was ≤ 97 mg/mL.

For `CC(C)=CCN(Cc1cc2c(=O)n(C)nnc2cc1Cl)c1ccc(C(=O)NCc2cccnc2)cc1`, the EC50 [3] was 3 nM.

For `Nc1c(-c2ccc3ccccc3n2)c2ccc([N+](=O)[O-])cc2c(=O)n1Cc1ccccc1`, the IC50 [4] was < 5000 nM and the EC50 [5] was 325000 nM.

`O=C(/C=C/c1cccnc1)Nc1ccc(S(=O)(=O)c2ccccc2)cc1` showed an EC50 [6] of 243 nM and an IC50 [7] of 3 nM.

For `C#CCN(Cc1cc2c(=O)n(C)c(CN3CCN(CCCN)CC3)nc2cc1Cl)c1ccc(C(=O)NCc2cccnc2)cc1`, the EC50 [3] was 18 nM.

In the case of `O=C(/C=C/c1cccnc1)NCCCCCCS(=O)(=O)N(CCN1CCOCC1)OCC1CCCCC1`, the IC50 [8] is reported as 0.16 nM.

Compound `O=c1c(NCCCCCCS(=O)(=O)N(OCCN2CCOCC2)C2CCCCC2)c(Nc2ccncc2)c1=O` has an IC50 [9] of 0.03 nM.

For `O=C(c1ccccc1)N1CCC(CCCCn2cc(/C=C/c3cccnc3)nn2)CC1`, the IC50 [10] was 3000 nM.

With `O=C(/C=C/c1ccc[n+]([C@@H]2O[C@H](CO)[C@@H](O)[C@H]2O)c1)NCCCCC1CCN(C(=O)c2ccccc2)CC1` the Kd [11] was 45000 nM.

With `O=C(NCc1cccnc1)Nc1ccc(S(=O)(=O)c2ccccc2OC(F)(F)F)cc1` the EC50 [8] was 7 nM and the IC50 [12] was 1.2 nM.

With `Cc1ncsc1C(=O)N1CCC(CCCCNC(=O)c2cc3cnccc3[nH]2)CC1` the EC50 [6] was 1 nM.

Compound `N#CN=C(NCCCCCCOc1ccc(Cl)cc1)Nc1ccncc1` [CHS-828] has a half-life [13] of 3 h and a CC50 [1] of 1.7 nM.

Compound `N#C/N=C(\NCc1ccc(S(=O)(=O)c2cccc(Cl)c2)cc1)Nc1ccncc1` has an EC50 [6] of 4.1 nM.

In the case of `O=C(NCCCCC1CCN(C(=O)c2ccccc2)CC1)c1cc2ccncc2s1`, the EC50 [6] is reported as 1.2 nM.

Compound `O=C1c2cc(S(=O)(=O)O)ccc2-c2ccc(S(=O)(=O)O)cc21` has an EC50 [5] of 335000 nM.

`O=C(/C=C/c1cccnc1)NCCCCC1CCN(C(=O)c2ccccc2)CC1` [DAPORINAD] gave a CC50 [1] of 1.5 nM and an IC50 [14] of 7.2 nM.

In the case of `C#CCN(Cc1cc2c(=O)n(C)c(CN3CCN(C)CC3)nc2cc1Br)c1ccc(C(=O)NCc2cccnc2)cc1`, the IC50 [12] is reported as 0.23 nM and the EC50 [15] is reported as 0.49 nM.

With `O=C(NCCCCCCS(=O)(=O)N(OCCN1CCOCC1)C1CCCCC1)NCc1cccnc1` the IC50 [8] was 0.89 nM.
